Measured values taken from US20240300934A1, “COMPOUNDS FOR MODULATING MYCOBACTERIUM TUBERCULOSIS RESPONSE” (priority 2021, published 2024).
In brackets after ≈: the same amount, converted by molar mass. Marks after values point to notes of the source that are not given here.

What was measured:
[1] = test system: rv2390c′::GFP reporter Mtb strain; assay type: cell-based, Mycobacterium tuberculosis; details: for rv2390c′::GFP Cl− response phenotype: compared to C6
[2] = test system: Mtb in J774 cells; assay: Mtb growth in J774 macrophage-like cells (mKO fluorescence); assay type: cell-based, Mycobacterium tuberculosis; details: for Inhibition of Mtb growth in J774 cells phenotype: compared to C6; for % Reduction of Intracellular Infection (J774.1 cells) at 10 μM cmpd: 10 μM compound
Method: For the tertiary screen of selected hit compounds in J774 murine macrophage-like cells, 30,000 J774 cells/well were seeded in bar-coded 384-well black, clear bottom plates in a 30 μl volume in J774 infection media (DMEM+10% FBS+1 mM sodium pyruvate+2 mM L-glutamine) using a ThermoFisher Multidrop Combi reagent dispenser, one day prior to assay start. On the day of the assay, log-phase Mtb constitutively expressing mKO were pelleted and resuspended in 1 ml basal uptake buffer (0.5% bovine serum albumin+25 mM dextrose+0.5 mM MgCl2+1 mM CaCl2+0.1% gelatin in phosphate buffered saline (PBS), passed 6× though a tuberculin syringe with a 25 G×5/8″ needle, then resuspended in J774 infection media to a final OD600=0.2. 10 μl of this bacterial suspension was added to each well of the 384-well plates containing the J774 cells, followed by addition of 10 μl of the appropriate compounds (pre-aliquoted in v-bottom plates in a 1:1 mix of PBS:J774 infection media). Addition of Mtb and compounds were conducted using a Janus Ministation. For each test plate, two columns of controls (16 wells each) were included, with one column consisting of treatment with DMSO as a carrier control (negative control), and the other column consisting of treatment with 5 μM rifampicin (positive control). This tertiary assay was done as a dose-response assay in duplicate runs, with compounds tested beginning at a final concentration of 20 μM and two-fold dilutions down to 0.039 μM. Plates were kept in humidified ziplock bags in a 37° C., 5% CO2 incubator. 6 days post-infection, mKO fluorescence signal was read using a PerkinElmer EnVision multimode plate reader (bottom read filter, excitation 530/8 nm, Bodipy TMR D555 single mirror, emission 579/25 nm). mKO fluorescence in DMSO-treated control samples were defined as 100% growth, and fluorescence observed in treatment conditions calculated as a percentage from that set value.
For J774 infection in 96-well plates, 180,000 J774 cells were seeded per well in 180 μl of J774 infection media one day prior to infection. On the day of the assay, log-phase Mtb constitutively expressing mKO were pelleted and resuspended in 1 ml basal uptake buffer, passed 6× though a tuberculin syringe with a 25 G×5/8″ needle, then resuspended in J774 infection media to a final OD600=0.2. Media was removed from 96-well plate containing the J774 cells, with 140 μl of fresh J774 infection media added back to each well. 40 μl of the Mtb suspension at OD600=0.2 was added to each well, followed by addition of appropriate concentration of compound or DMSO in a 20 μl final volume in J774 infection media (compound final concentration 10 μM, rifampicin final concentration 5 μM, DMSO final concentration 0.1%/well). Bacterial mKO fluorescence was read immediately after infection using a Biotek Synergy Neo2 microplate reader (bottom read monochromator, excitation 543/10 nm, emission 565/10 nm), and again 6 days post-infection. Plates were kept in humidified ziplock bags in a 37° C., 5% CO2 incubator. mKO fluorescence in DMSO-treated control samples were defined as 100% growth, and fluorescence observed in treatment conditions calculated as a percentage from that set value.

[3] = test system: Mtb; assay: Mtb growth assay in cholesterol media (OD600); assay type: cell-based, Mycobacterium tuberculosis; details: for Growth inhibition in cholesterol media phenotype: compared to C6
[4] = test system: murine bone marrow derived macrophages phagosome; assay: Phagosomal maturation assays with sensor beads; assay type: cell-based, mouse; details: 10 μM
Method: Carboxyfluorescein (pH readout), DQ-BSA/Alexa Fluor 594 (AF594) (proteolysis readout), and 10,10′-Bis[3-carboxylpropyl]-9,9′-biacridinium (BAC)/AF594 (Cl^− readout) beads were generated as previously described (Podinovskaia et al, 2013; Tan et al, 2013; Tan et al, 2017; Yates et al, 2008). Bone marrow-derived macrophages were isolated from C57BL/6J mice (Jackson Laboratories) and maintained as described above. 2×10^5 macrophages/well were seeded into 96-well clear bottom black plates, and utilized in assays one-two days post-seeding. […] Assay buffer consisted of PBS, pH 7.2, supplemented with 5% FBS, 5 mM dextrose, 1 mM CaCl2, 2.7 mM KCl, and 0.5 mM MgCl2 in the case of assays with the carboxyfluorescein or DQ-BSA/AF594 beads (Buter et al, 2019; Dutta et al, 2020). For assays with the BAC/AF594 beads, assay buffer consisted of PBS, pH 7.2, supplemented with 5% FBS, 5 mM dextrose, 1 mM calcium acetate, 1.35 mM K2SO4, and 0.5 mM MgSO4 (Tan et al, 2013). Sensor beads at ˜2-5 beads/macrophage in appropriate assay buffer were finally added, with data acquisition on a Biotek Synergy H1 microplate reader with bottom read signal detection started within 2-3 minutes of bead addition. Excitation/emission wavelengths were 450 nm/520 nm and 490 nm/520 nm for carboxyfluorescein, 490 nm/520 nm for DQ-BSA, 365 nm/505 nm for BAC, and 590 nm/617 nm for AF594. Each experiment was run with a total of 3-5 replicate wells/condition, with temperature maintained at 37° C. throughout the assay. Wells were read every 2 minutes for 2 hours for the carboxyfluorescein bead assays, every 2 minutes for 4 hours for the DQ-BSA/AF594 bead assays, and every 1 minute for 2 hours for the BAC/AF594 bead assays. Analyses of the results were performed as previously described (Buter et al, 2019; Dutta et al, 2020; Podinovskaia et al, 2013; Tan et al, 2013).

[5] = Kinetic aqueous solubility in pH 7.4 PBS; assay type: physicochemical; details: PBS, pH 7.4, aqueous buffer, kinetic from dmso stock; Table 2; read-out: Kinetic Aqueous Solubility S
Method: (§1) Assays examining mouse and human liver microsomal stability, kinetic aqueous solubility, mouse and human plasma protein binding and stability, and human cytochrome P450 inhibition characteristics of the compounds were run by BioDuro, Incorporated, using standard protocols as previously described (Wang et al, 2020). hERG inhibition assays were also performed by BioDuro, Incorporated.

[6] = Mouse liver microsomal stability; assay type: in vitro ADME; details: mouse liver microsomes; read-out: MLM t1/2
Method: as §1

[7] = Mouse pharmacokinetics, single oral dose; assay type: in vivo, CD-1 mice; details: female, single 25 mg/kg po dose; for Kp at 5 h: CD-1, mouse, lung vs plasma, read-out: Mouse PK Clung/Cplasma at t = 5 h; for AUC(0-t): mouse, plasma, CD-1 mice, read-out: Mouse PK AUC0-5h
Method: Blood samples were collected in K2EDTA coated tubes pre-dose, 0.5, 1, 3 and 5 hrs post-dose, placed on ice, and centrifuged to recover plasma. The recovered plasma was kept at −80° C. as needed prior to analysis, which was performed as previously described (Wang et al, 2020). In brief, a Sciex Applied Biosystems Qtrap 4000 triple-quadrupole mass spectrometer coupled to an Agilent 1260 HPLC system was used for HPLC coupled to tandem mass spectrometry (LC-MS/MS) quantitative analysis of the samples, with chromatography attained using an Agilent Zorbax SB-C8 column (2.1×30 mm; particle size, 3.5 μm) and a reverse phase gradient elution. The aqueous mobile phase consisted of Milli-Q deionized water with 0.1% formic acid (A), while the organic mobile phase was 0.1% formic acid in acetonitrile (B). The gradient set-up was as follows: 5-90% B over 2 mins, 1 min at 90% B, then an immediate drop to 5% B and an additional 1 min at 5% B. Quantification of molecules was carried out via multiple-reaction monitoring of parent/daughter transitions in electrospray positive-ionization mode, and sample analyses accepted if quality control and standard samples had concentrations within 20% of the nominal concentration. Preparation of compounds for generation of standard curves and quality control spiking solutions were performed as previously described (Wang et al, 2020). Data were processed using Analyst software (Version 1.6.2; Applied Biosystems Sciex).

[8] = test system: Mtb; assay: C3HeB/FeJ murine Mtb infection model; assay type: in vivo, C3HeB/FeJ mice; details: 150 mg/kg, 5 days/week oral gavage for 2 weeks, started 2 or 6 weeks post-infection
Method: C3HeB/FeJ wild type mice (Jackson Laboratories) were infected intranasally with 10^3 CFUs of Mtb (35 μl), under light anesthesia with 2% isoflurane (MacGilvary et al, 2019; Sukumar et al, 2014; Tan et al, 2013). […] The next day the suspension was homogenized by bead beating with 5 mm steel beads in a TOMY microtube mixer (2×20 s), and stored at 4° C. until use. […] Administration began at two or six weeks post-infection as indicated. At time of sacrifice, the left lobe and accessory right lobe of the lung were homogenized in PBS+0.05% Tween 80 and serial dilutions plated on 7H10 agar plates with 100 μg/ml cycloheximide for bacterial load determination. The remaining three right lobes were fixed in 4% PFA in PBS. One lobe was used for histological analysis by standard hematoxylin and eosin (H&E) staining (Tufts Comparative Pathology Services). A Nikon Eclipse E400 with a SPOT insight color digital camera was used to image the histology samples.

Compound	rv2390c′::GFP reporter signal upon Mtb exposure to high [Cl−] (in words) ([1]; 10 μM, 250 mM NaCl)	rv2390c′::GFP Cl− response phenotype [1]	Mtb growth in J774 cells (in words) ([2]; 10 μM, 6 days post-infection)	Mtb growth in cholesterol media (in words) ([3]; 10 μM, OD600)	Growth inhibition in cholesterol media phenotype [3]	Inhibition of Mtb growth in J774 cells phenotype [2]	macrophage phagosomal proteolytic activity ([4]; DQ-BSA/AF594 beads)	macrophage phagosomal acidification ([4]; carboxyfluorescein beads)	% Reduction of Intracellular Infection (J774.1 cells) at 10 μM cmpd [2]	solubility kinetic [5]	half-life [6]	Kp at 5 h [7]	AUC(0-t) [7]	Mtb growth in vivo (lung CFUs) [8]
CCSc1ncc(CN2CCN(c3nc4ccccc4s3)CC2)cn1 [JSF-4298, 2-(4-((2-(ethylthio)pyrimidin-5-yl)methyl)piperazin-1-yl)benzo[d]thiazole]	continuing to demonstrate the phenotypes seen with the parental C6 compound	Y	continuing to demonstrate the phenotypes seen with the parental C6 compound	continuing to demonstrate the phenotypes seen with the parental C6 compound	Y	–	–	–	–	–	–	–	–	–
CCSc1ncc(CN2CCN(c3nc4ccccc4[nH]3)CC2)cn1 [JSF-4299, 2-(4-((2-(ethylthio)pyrimidin-5-yl)methyl)piperazin-1-yl)-1H-benzo[d]imidazole]	–	Y	–	–	Y	Y	decrease in the extent of proteolysis	delay in acidification	–	–	–	–	–	–
CCSc1ncc(CN2CCN(c3nc4ccc(Cl)cc4o3)CC2)cn1 [JSF-4467, 6-chloro-2-(4-((2-(ethylthio)pyrimidin-5-yl)methyl)piperazin-1-yl)benzo[d]oxazole]	–	Y	–	–	–	Y	–	–	50.6 ± 2.0%	8.3 µM (≈ 3.24 µg/mL)	54.3 min	0.36	41700 ng·h/mL	–
CCSc1ncc(CN2CCN(c3nc4cc(F)c(F)cc4o3)CC2)cn1 [JSF-4525, 2-(4-((2-(ethylthio)pyrimidin-5-yl)methyl)piperazin-1-yl)-5,6-difluorobenzo[d]oxazole]	–	Y	–	–	–	Y	–	–	46.3 ± 2.9^b %	0.952 µM (≈ 0.373 µg/mL)	39.8 min	0.33	29700 ng·h/mL	–
CCSc1ncc(CN2CCN(c3nc4cc(C(F)(F)F)ccc4o3)CC2)cn1 [JSF-4526, 2-(4-((2-(ethylthio)pyrimidin-5-yl)methyl)piperazin-1-yl)-5-(trifluoromethyl)benzo[d]oxazole]	–	Y	–	–	–	Y	–	–	52.4 ± 1.4%	38.6 µM (≈ 16.3 µg/mL)	32 min	0.44	27500 ng·h/mL	–
CCSc1ncc(CN2CCN(c3nc4ccc(C)cc4o3)CC2)cn1 [JSF-4527, 2-(4-((2-(ethylthio)pyrimidin-5-yl)methyl)piperazin-1-yl)-6-methylbenzo[d]oxazole]	–	Y	–	–	–	Y	–	–	53.8 ± 2.1%	13.7 µM (≈ 5.06 µg/mL)	38.7 min	0.55	16300 ng·h/mL	–
CCSc1ncc(CN2CCN(c3nc4ccc(C#N)cc4o3)CC2)cn1 [JSF-4538, 2-(4-((2-(ethylthio)pyrimidin-5-yl)methyl)piperazin-1-yl)benzo[d]oxazole-6-carbonitrile]	–	Y	–	–	–	–	–	–	36.4 ± 2.6%	–	25.5 min	0.3	98700 ng·h/mL	inhibits Mtb growth in vivo
CSc1ncc(CN2CCN(c3nc4ccccc4o3)CC2)cn1 [JSF-4730, 2-(4-((2-(methylthio)pyrimidin-5-yl)methyl)piperazin-1-yl)benzo[d]oxazole]	–	Y	–	–	–	Y	–	–	–	–	–	–	–	–
